pIC50, pKd: −log10 of the molar value. Converted amounts (≈) assume the structure as drawn. The source made the active and inactive calls. The rule behind the calls is not given here.
Legend:
[1] = biological target: T1, Hepatocyte growth factor receptor (Homo sapiens, UniProt P08581); experiment: Binding affinity to human recombinant His6-tagged unphosphorylated c-Met cytosolic domain
[2] = biological target: Voltage-gated inwardly rectifying potassium channel KCNH2 (Homo sapiens, UniProt Q12809); experiment: Inhibition of Kv11.1 channel
[3] = biological target: BDNF/NT-3 growth factors receptor (Homo sapiens, UniProt Q16620); experiment: Inhibition of human TrkB
[4] = system: GTL 16; experiment: Antitumor activity against human GTL16 cells xenografted in CD1 nu/nu mouse assessed as suppression of tumor growth at 10 to 100 mg/kg, po BID; assay type: functional, organism-based
[5] = biological target: Fibroblast growth factor receptor 1 (Homo sapiens, UniProt P11362); experiment: Inhibition of human FGFR1
[6] = system: Canis familiaris; experiment: AUC (0 to infinity) in dog at 2 mg/kg, po; assay type: ADME, organism-based, Canis lupus familiaris, Plasma; parameters: time infinity, dose 2 mg/kg, route oral; settings: in vivo
[7] = Cmax in mouse at 2 mg/kg, po; assay type: ADME, organism-based; parameters: dose 2 mg/kg, route oral; settings: in vivo
[8] = biological target: T1, Hepatocyte growth factor receptor; experiment: Inhibition of c-MET overexpressed in human GTL-16 cells assessed as phosphorylation at C-terminal Y1365 after 2 hrs by Western blot analysis; assay type: cell-based
[9] = AUC (0 to infinity) in monkey at 0.25 mg/kg, iv; assay type: ADME, organism-based, Macaca mulatta; parameters: time infinity, dose 0.25 mg/kg, route intravenous; settings: rhesus monkey, plasma
[10] = biological target: Aurora kinase A (Homo sapiens, UniProt O14965); experiment: Inhibition of human Aurora A
[11] = AUC (0 to infinity) in rat at 5 mg/kg, po; assay type: ADME, organism-based; parameters: dose 5 mg/kg, route oral, time infinity; settings: plasma
[12] = biological target: T1, Hepatocyte growth factor receptor; experiment: Inhibition of c-MET overexpressed in human GTL-16 cells assessed as phosphorylation at C-terminal Y1234 after 2 hrs by Western blot analysis; assay type: cell-based
[13] = biological target: Hepatocyte growth factor receptor (Homo sapiens, UniProt P08581, Y1230H)
[14] = system: Mus musculus; experiment: Inhibition of c-Met phosphorylation at Y1349 in human GTL16 cells xenografted in po dosed CD1 nu/nu mouse measured 1 hr post dosing by Western blot analysis; settings: CD1, GTL 16, 1 h
[15] = biological target: Platelet-derived growth factor receptor alpha (Homo sapiens, UniProt P16234); experiment: Inhibition of human PDGFR-alpha
[16] = AUC (0 to infinity) in rat at 2 mg/kg, iv; assay type: ADME, organism-based; parameters: time infinity, dose 2 mg/kg, route intravenous; settings: plasma
[17] = biological target: T1, Hepatocyte growth factor receptor
[18] = biological target: T1, Hepatocyte growth factor receptor; experiment: Inhibition of recombinant human c-MET phosphorylation at C-terminal Y1365
[19] = Plasma clearance in mouse at 1 mg/kg, iv; assay type: ADME, organism-based; parameters: dose 1 mg/kg, route intravenous
[20] = Lipophilicity, log P of the compound; assay type: physicochemical; settings: octanol/water
[21] = system: Canis familiaris; experiment: AUC (0 to infinity) in dog at 1 mg/kg, iv; assay type: ADME, organism-based, Canis lupus familiaris, Plasma; parameters: time infinity, dose 1 mg/kg, route intravenous; settings: in vivo
[22] = biological target: Cytochrome P450 2C9 (Homo sapiens, UniProt P11712); experiment: Inhibition of CYP2C9; assay type: ADME
[23] = Solubility of the compound at pH 7.4; assay type: physicochemical; settings: buffer

For `CN(C[C@@H]1COCCO1)S(=O)(=O)Nc1ccc2ccc3ncc(-c4cnn(C)c4)cc3c(=O)c2c1` [MK-2461], the pKd [1] was 7.60, the pIC50 [2] was under 4.52 and the pIC50 [3] was 7.21. For the same molecule, the Activity [4] was “Active”, the pIC50 [5] was 7.19 and the AUC [6] was 13.7 µM·h. It also gave a Cmax [7] of 410 nM, a pIC50 [8] of 7.30 and an AUC(0-inf) [9] of 1 µM·h. The pIC50 [10] was 6.54, the AUC(0-inf) [11] was 11.8 µM·h and the pIC50 [12] was under 5.60. For the same molecule, the pIC50 [13] was 9.00, the pIC50 [14] was 6.00 and the pIC50 [15] was over 7.00. The AUC(0-inf) [16] was 7.6 µM·h, the pIC50 [17] was 8.70 and the pIC50 [18] was 7.59. For the same molecule, the clearance [19] was 83 mL/min/kg, the logP [20] was 2.7 and the AUC [21] was 8.4 µM·h. It also gave a pIC50 [22] of 5.92 and a solubility [23] of 3 µg/mL (≈ 6.05 µM).
